In patent publication US9266834B2, “1, 4-disubstituted 3-cyano-pyridone derivatives and their use as positive allosteric modulators of MGLUR2-receptors” (JANSSEN PHARMACEUTICALS, INC., priority 2006, dated 2016):

Assays:
human mGluR2 receptor = molecular target: T1, human mGluR2 receptor (Homo sapiens, UniProt Q14416); assay: [35S]GTPγS binding assay (GTPγS-PAM): positive allosteric modulation in presence of glutamate at EC25, membranes from transfected CHO cells; assay type: biochemical; conditions: in presence of mGluR2 agonist glutamate at predetermined EC25 concentration, averages of duplicate values of 11-concentration response curves, read-out: GTPgS - hR2 PAM pEC50 (converted)
T1 construct: expressed in transfected cells; host or cells: CHO cells (membrane preparation)
Method in brief: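 Potentiation was read as filter-retained [35S]GTPγS (0.1 nM final, 30 min, 30° C.) after a 30 min, 30° C. preincubation of human mGluR2 CHO membranes (15 μg/well) with EC25 glutamate and 11 modulator concentrations spanning 0.3 nM-50 μM. The buffer was 50 mM HEPES pH 7.4, NaCl, MgCl2, 50 μM GDP and saponin. Cold 10 μM GTP defined nonspecific binding; data were fitted by a four-parameter logistic.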

T1 sequence (Q14416 19-872): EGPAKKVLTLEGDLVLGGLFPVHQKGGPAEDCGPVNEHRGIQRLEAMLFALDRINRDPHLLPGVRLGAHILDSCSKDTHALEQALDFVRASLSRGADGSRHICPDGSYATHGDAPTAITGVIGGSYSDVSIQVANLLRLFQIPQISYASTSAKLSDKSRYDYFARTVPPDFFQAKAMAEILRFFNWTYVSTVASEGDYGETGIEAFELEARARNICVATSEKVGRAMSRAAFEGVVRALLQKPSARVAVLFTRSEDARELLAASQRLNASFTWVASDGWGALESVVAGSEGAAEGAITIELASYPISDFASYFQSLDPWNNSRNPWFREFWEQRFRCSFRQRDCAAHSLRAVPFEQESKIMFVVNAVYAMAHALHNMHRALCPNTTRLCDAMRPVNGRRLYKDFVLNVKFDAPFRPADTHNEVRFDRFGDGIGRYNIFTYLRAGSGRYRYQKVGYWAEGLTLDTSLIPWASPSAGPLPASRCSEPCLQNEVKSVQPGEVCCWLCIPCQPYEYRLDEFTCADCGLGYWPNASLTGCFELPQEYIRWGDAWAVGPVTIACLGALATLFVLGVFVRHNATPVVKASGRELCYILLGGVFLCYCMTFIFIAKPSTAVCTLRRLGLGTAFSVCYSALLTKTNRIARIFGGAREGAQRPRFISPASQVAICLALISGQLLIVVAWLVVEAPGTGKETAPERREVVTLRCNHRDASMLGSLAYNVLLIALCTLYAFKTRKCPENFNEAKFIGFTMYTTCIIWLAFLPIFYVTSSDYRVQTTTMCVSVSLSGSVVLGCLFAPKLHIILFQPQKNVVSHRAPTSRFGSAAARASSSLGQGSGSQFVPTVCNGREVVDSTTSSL

SMILES | melting point | EC50 (human mGluR2 receptor)
CC(C)CCn1ccc(OCc2ccc(OC(F)F)cc2)c(C#N)c1=O [1-284] | 190 °C | 0.631 µM
CC(C)CCn1ccc(-c2ccc(OCc3ccc(F)cc3)cc2)c(C#N)c1=O [1-147] | 146 °C | 0.0794 µM
CC(C)CCn1ccc(-c2ccc(CCCO)cc2)c(C#N)c1=O [1-095, 3-cyano-4-(4-hydroxypropylphenyl)-1-(3-methylbutyl)pyridine-2(1H)-one] | 85 °C | 0.631 µM
CC(C)CCn1ccc(-c2ccc3c(ccn3Cc3ccncc3)c2)c(C#N)c1=O [5-020] | 232 °C | 0.0251 µM
CC(C)CCn1ccc(-c2ccc(OCc3cccc(F)c3)cc2)c(C#N)c1=O [1-146] | 139 °C | 0.0631 µM
N#Cc1c(-c2ccc(OCCCN3CCOCC3)cc2)ccn(Cc2ccc(OC(F)(F)F)cc2)c1=O [1-038] | 140 °C | 0.794 µM
N#Cc1c(N2CCC(N(Cc3cccc(F)c3)C3CC3)CC2)ccn(Cc2ccc(F)cc2)c1=O [4-059] | 157 °C | 0.251 µM
CC(C)CCn1ccc(N2CCc3c([nH]c4ccccc34)C2)c(C#N)c1=O [5-039] | 276 °C | 0.0794 µM
CCCCn1ccc(-c2ccc3c(c2)nc(C)n3Cc2ccccn2)c(C#N)c1=O [5-002] | 164.7 °C | 6.31 µM
CC(C)CCn1ccc(-c2ccccc2)c(C#N)c1=O [1-084] | 142 °C | –
CC(C)CCn1ccc(N2CCC(c3cccc(C(F)(F)F)c3)CC2)c(C#N)c1=O [4-016] | 112 °C | 0.0501 µM
CC(C)CCn1ccc(-c2ccc(C(C#N)c3ccn(CCC(C)C)c(=O)c3C#N)cc2)c(C#N)c1=O (centres unmarked) [1-255] | 233 °C | 0.794 µM
CCCCn1ccc(N2CCC(Oc3cccnc3)CC2)c(C#N)c1=O [4-004] | 188 °C | 3.16 µM
CC(=O)NCc1ccc(-c2ccn(CCC(C)C)c(=O)c2C#N)cc1 [1-179, 4-(4-(N-acetylmethyl)phenyl)-3-cyano-1-(3-methylbutyl)pyridine-2(1H)-one] | 144 °C | 3.16 µM
CCCCn1ccc(N2CCC(c3ccnc(C)c3)CC2)c(C#N)c1=O [4-003] | 132 °C | 3.98 µM
N#Cc1c(N2CCC(N3Cc4ccc(F)cc4C3)CC2)ccn(Cc2ccc(F)cc2)c1=O [4-061] | 175 °C | 1.58 µM
CC(=O)c1ccc(-c2ccn(CCC(C)C)c(=O)c2C#N)cc1 [1-238] | 130 °C | 3.16 µM
CC(C)CCn1ccc(-c2cccc(Cl)c2)c(C#N)c1=O [1-090] | 123 °C | 0.794 µM
N#Cc1c(-c2ccc(Oc3ccccc3)cc2)ccn(Cc2ccc(OC(F)(F)F)cc2)c1=O [1-041] | 155 °C | 0.251 µM
CC(C)CCn1ccc(-c2ccc(Oc3ccncc3)cc2)c(C#N)c1=O [1-156] | 139 °C | 0.501 µM
CC(C)CCn1ccc(N2CCN(Cc3ccc(OC(F)(F)F)c(Cl)c3)CC2)c(C#N)c1=O [2-022] | 256 °C | 0.158 µM
CC(C)CCn1ccc(-c2ccc(OCc3ccncc3)cc2)c(C#N)c1=O [1-159] | 171 °C | 0.501 µM
CC(C)Cn1ccc(-c2cccs2)c(C#N)c1=O [1-077] | 108 °C | 3.98 µM
CC(C)CCn1ccc(-c2ccc(N(C)C)cc2)c(C#N)c1=O [1-172] | 137 °C | 0.126 µM
CC(C)CCn1ccc(-c2ccc(NCc3ccc(C#N)cc3)cc2)c(C#N)c1=O [1-206] | 209 °C | 0.0501 µM

SMILES | melting point | EC50 (human mGluR2 receptor)
CC(C)CCn1ccc(-c2ccc(NCCC3(C)OCCO3)cc2)c(C#N)c1=O [1-192] | 119 °C | 0.501 µM
CC(C)CCn1ccc(OCCN2CCN(c3ccccn3)CC2)c(C#N)c1=O [2-036] | 159 °C | –
CC(C)Cn1ccc(-c2ccc(Oc3ccncc3)cc2)c(C#N)c1=O [1-078] | 170 °C | 3.98 µM
CCCCn1ccc(-c2ccc(N3CCCCC3)cc2)c(C#N)c1=O [1-058] | 122 °C | 0.316 µM
COc1ccc(COc2ccc(-c3ccn(CCC(C)C)c(=O)c3C#N)cc2)cc1 [1-145] | 212 °C | 0.0398 µM
CC(C)CCn1ccc(N2CCC(c3noc(CC(C)(C)C)n3)CC2)c(C#N)c1=O [4-040] | 113 °C | 0.398 µM
N#Cc1c(N2CCN(Cc3ccc(OC(F)(F)F)c(Cl)c3)CC2)ccn(CC2CC2)c1=O [2-039] | 125 °C | 0.794 µM
CC(C)CCn1ccc(-c2cccc(-c3ccccc3)c2)c(C#N)c1=O [1-094] | 131 °C | 0.501 µM
COc1ccc(-c2ccn(Cc3ccc(C(F)(F)F)cc3)c(=O)c2C#N)cc1 [1-024] | 181 °C | 0.126 µM
CN(Cc1ccccc1)C1CCN(c2ccn(CCOc3ccccc3)c(=O)c2C#N)CC1 [4-064] | 159 °C | 0.126 µM
CC(C)CCn1ccc(N2CCC(N3CCc4ccccc4C3)CC2)c(C#N)c1=O [4-034] | 253 °C | 3.16 µM
CC(=O)Nc1ccc(-c2ccn(CCC(C)C)c(=O)c2C#N)cc1 [1-176] | 198 °C | 5.01 µM
CC(C)CCn1ccc(-c2ccc(N3CC(C)OC(C)C3)cc2)c(C#N)c1=O (centres unmarked) [1-227] | 162 °C | 0.501 µM
CC(C)CCn1ccc(N2CCC(N(C)Cc3cccc(F)c3)C2)c(C#N)c1=O (centres unmarked) [5-006] | 100 °C | 3.98 µM
N#Cc1c(N2CCC(N(Cc3cccc(C(F)(F)F)c3)C3CC3)CC2)ccn(Cc2ccc(F)cc2)c1=O [4-060] | 96 °C | 0.0501 µM
N#Cc1c(N2CCN(c3ncccc3C(F)(F)F)CC2)ccn(Cc2ccc(OC(F)(F)F)cc2)c1=O [2-048] | 258 °C | 0.0794 µM
N#Cc1c(N2CCC(c3ccccc3)CC2)ccn(CC2CC2)c1=O [4-047, 3-cyano-1-cyclopropylmethyl-4-(4-phenyl-piperidin-1-yl)-pyridine-2(1H)-one] | 128 °C | –
CNC(=O)COc1ccc(-c2ccn(CCC(C)C)c(=O)c2C#N)cc1 [1-127] | 156 °C | –
CC(C)CCn1ccc(-c2ccc(CCC(=O)O)cc2)c(C#N)c1=O [1-240] | 169 °C | –
CC(C)CCn1ccc(OCCOCc2ccccc2)c(C#N)c1=O [1-281] | 83 °C | –
CC(C)CCn1ccc(-n2ncc3ccccc32)c(C#N)c1=O [5-029] | 234 °C | –
CCCn1ccc(-c2cccs2)c(C#N)c1=O [1-050] | 135 °C | –
CC(C)CCn1ccc(-c2ccc(C(=O)NCc3ccncc3)cc2)c(C#N)c1=O [1-213] | 96 °C | –
CC(=O)NCc1cccc(-c2ccn(CCC(C)C)c(=O)c2C#N)c1 [1-178] | 157 °C | –
CC(C)CCn1ccc(-c2ccc(CN3CCOCC3)cc2)c(C#N)c1=O [1-229] | 148 °C | –

SMILES | melting point | EC50 (human mGluR2 receptor)
CC(C)CCn1ccc(-c2ccc(-n3ccnc3)cc2)c(C#N)c1=O [1-235] | 151 °C | –
CC(C)CCn1ccc(-c2ccc(CO)cc2)c(C#N)c1=O [1-098] | 145 °C | –
CC(C)CCn1ccc(OCc2ccc(C#N)cc2)c(C#N)c1=O [1-286] | – | 3.98 µM
CC(=O)CCOc1ccc(-c2ccn(CCC(C)C)c(=O)c2C#N)cc1 [1-126] | – | 0.631 µM
CC(C)CCn1ccc(N2CCN(c3ccc(C#N)cn3)CC2)c(C#N)c1=O [2-027] | – | 6.31 µM
CN(C)c1ccc(-c2ccn(CC3CCCCC3)c(=O)c2C#N)cc1 [1-010] | – | 0.1 µM
CC(C)CCn1ccc(N2CCC(c3ccccc3)(N3CCOCC3)CC2)c(C#N)c1=O [4-044] | – | 2.51 µM
N#Cc1c(N2CCN(Cc3cc(F)cc(F)c3)CC2)ccn(Cc2ccc(F)cc2)c1=O [2-052] | – | 3.98 µM
CC(C)CCn1ccc(-c2ccc(NCc3ccccc3)cc2)c(C#N)c1=O [1-194] | – | 0.0631 µM
COc1ccccc1N1CCCN(c2ccn(CCC(C)C)c(=O)c2C#N)CC1 [5-044] | – | 1 µM
CN(Cc1cccc(C(F)(F)F)c1)C1CCN(c2ccn(Cc3ccc(F)cc3)c(=O)c2C#N)CC1 [4-058] | – | 0.251 µM
C[C@@H]1COC[C@H](C)N1Cc1ccc(-c2ccn(Cc3ccc(OC(F)(F)F)cc3)c(=O)c2C#N)cc1 [1-034] | – | 1.26 µM
CCCCn1ccc(-c2ccc(Oc3ncccc3C#N)cc2)c(C#N)c1=O [1-071] | – | 0.631 µM
CC(C)CCn1ccc(-c2ccc(NCc3ccc(OC(F)(F)F)cc3)cc2)c(C#N)c1=O [1-205] | – | 0.251 µM
COc1ccc(-c2ccn(Cc3ccc(F)cc3)c(=O)c2C#N)cc1 [1-022] | – | 0.316 µM
N#Cc1c(OC2CCN(Cc3cccc(C(F)(F)F)c3)CC2)ccn(CC2CC2)c1=O [3-012] | – | 1.26 µM
COc1cc(-c2ccn(CCC(C)C)c(=O)c2C#N)ccc1CNC(C)=O [1-184] | – | 3.98 µM
CCCCn1ccc(N2CCN(c3ncc(C4CC4)cn3)CC2)c(C#N)c1=O [2-006] | – | 0.158 µM
CC(C)CCn1ccc(N2CCC(OCc3ccc(OC(F)(F)F)cc3)CC2)c(C#N)c1=O [4-022] | – | 0.0501 µM
CC(C)CCn1ccc(N2C[C@@H]3C[C@H]2CN3Cc2ccccc2)c(C#N)c1=O [5-004] | – | 5.01 µM
CC(=O)N1CCc2cc(-c3ccn(CCC(C)C)c(=O)c3C#N)ccc21 [5-015] | – | 1.58 µM
CC(C)CCn1ccc(-c2ccc(N(C)Cc3ccccc3)cc2)c(C#N)c1=O [1-196] | – | 0.0398 µM
CC(C)CCn1ccc(-c2ccc(OCCO)cc2)c(C#N)c1=O [1-099] | – | 1 µM
CC(C)CCn1ccc(-c2ccc(F)cc2)c(C#N)c1=O [1-089] | – | 3.16 µM
